In patent publication US8338597B2, “Pyridones useful as inhibitors of kinases” (Vertex Pharmaceuticals Incorporated, priority 2004, dated 2012):

Molecular target: T1, Itk (Homo sapiens, UniProt Q08881)
T1 sequence (Q08881 1-620): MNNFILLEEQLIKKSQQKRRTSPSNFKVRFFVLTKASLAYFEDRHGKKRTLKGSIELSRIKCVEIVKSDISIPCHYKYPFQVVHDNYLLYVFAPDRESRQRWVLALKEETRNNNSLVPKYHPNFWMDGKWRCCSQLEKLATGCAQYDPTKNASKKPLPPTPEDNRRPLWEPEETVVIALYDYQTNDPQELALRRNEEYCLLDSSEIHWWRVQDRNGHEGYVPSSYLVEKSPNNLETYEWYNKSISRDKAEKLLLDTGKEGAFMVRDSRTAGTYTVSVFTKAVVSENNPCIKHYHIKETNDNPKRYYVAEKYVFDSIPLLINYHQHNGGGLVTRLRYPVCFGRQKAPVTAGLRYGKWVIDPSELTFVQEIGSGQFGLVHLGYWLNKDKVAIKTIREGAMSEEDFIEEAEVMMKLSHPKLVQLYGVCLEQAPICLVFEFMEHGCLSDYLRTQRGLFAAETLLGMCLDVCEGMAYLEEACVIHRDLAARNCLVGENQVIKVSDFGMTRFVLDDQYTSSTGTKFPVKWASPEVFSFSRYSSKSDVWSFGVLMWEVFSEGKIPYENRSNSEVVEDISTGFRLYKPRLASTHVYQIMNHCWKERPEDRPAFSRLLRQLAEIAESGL
Experiment: ITK inhibition assay, radioactive-phosphate incorporation
Type: biochemical
Conditions: [γ-33P]ATP, SAM68 peptide, 25° C.
Method: Assays were carried out in a mixture of 20 mM MOPS (pH 7.0), 10 mM MgCl2, 0.1% BSA and 1 mM DTT. […] Assays were carried out at 25° C. in the presence of 50 nM Itk. An assay stock buffer solution was prepared containing all of the reagents listed above, with the exception of ATP and the test compound of interest.
The reaction was stopped after 10 minutes by the addition of […] 0.2M phosphoric acid+0.01% TWEEN 20. A multiscreen phosphocellulose filter 96-well plate (Millipore, Cat no. MAPHN0B50) was pretreated with 100 μL 0.2M phosphoric acid+0.01% TWEEN 20 prior to the addition of […] of the stopped assay mixture. The plate was washed with 4×200 μL 0.2M phosphoric acid+0.01% TWEEN 20.
Ki(app) data were calculated from non-linear regression analysis of the initial rate data using the Prism software package (GraphPad Prism version 3.0cx for Macintosh, GraphPad Software, San Diego Calif., USA).

Ki [nM] | SMILES
100 to 1000 | O=C(Nc1cc(-c2ccncc2)c[nH]c1=O)c1ccc(Br)cc1 [Compound I-20, 4-Bromo-N-(1,2-dihydro-2-oxo-5-(pyridin-4-yl)pyridin-3-yl)benzamide]
100 to 1000 | CC(C)Oc1ccc(C(=O)Nc2cc(-c3ccncc3)c[nH]c2=O)cc1 [Compound I-21]
100 to 1000 | O=C(Nc1cc(-c2ccncc2)c[nH]c1=O)c1ccc(Oc2ccccc2)cc1 [Compound I-22]
100 to 1000 | O=C(Nc1cc(-c2ccncc2)c[nH]c1=O)c1ccc(N2CCOCC2)cc1 [Compound I-73]
100 to 1000 | O=C(Nc1cc(-c2ccncc2)c[nH]c1=O)c1ccc(N2CCC(N3CCCC3)CC2)cc1 [Compound I-75]
< 100 | COCCCN1CCN(c2ccc(C(=O)Nc3cc(-c4ccncc4)c[nH]c3=O)cc2)CC1 [Compound I-77]
< 100 | O=C(Nc1cc(-c2ccncc2)c[nH]c1=O)c1ccc(N2CCN(CCOCCO)CC2)cc1 [Compound I-81]
100 to 1000 | CNCCCN(C)Cc1ccc(C(=O)Nc2cc(-c3ccncc3)c[nH]c2=O)cc1 [Compound I-85]
100 to 1000 | CN(C)c1nccc(-c2c[nH]c(=O)c(NC(=O)c3ccc(C(C)(C)C)cc3)c2)n1 [II-21]
< 100 | CC(C)Nc1nccc(-c2c[nH]c(=O)c(NC(=O)c3ccc(C(C)(C)C)cc3)c2)n1 [II-23]
100 to 1000 | CC(C)(C)c1ccc(C(=O)Nc2cc(-c3cccc(NC4CCNCC4)n3)c[nH]c2=O)cc1 [II-32]
100 to 1000 | CNc1ccnc(-c2c[nH]c(=O)c(NC(=O)c3ccc(N4CCCCC4)cc3)c2)n1 [II-56]
100 to 1000 | CCOc1nccc(-c2c[nH]c(=O)c(NC(=O)c3ccc(N4CCCCC4)cc3)c2)n1 [II-57]
100 to 1000 | CNCCNc1cccc(-c2c[nH]c(=O)c(NC(=O)c3ccc(N4CCCCC4)cc3)c2)n1 [II-60]
100 to 1000 | CNc1ncc(C)c(-c2c[nH]c(=O)c(NC(=O)c3ccc(C(C)(C)C)cc3)c2)n1 [II-62]
< 100 | CNc1nccc(-c2c[nH]c(=O)c(NC(=O)c3ccccc3)c2)n1 [II-64]
< 100 | CCc1cc(-c2c[nH]c(=O)c(NC(=O)c3ccc(N4CCCCC4)cc3)c2)nc(NC)n1 [II-66]
100 to 1000 | CNc1cccc(-c2c[nH]c(=O)c(NC(=O)c3ccc(N4CCCCC4)cc3)c2)c1 [II-69]
100 to 1000 | CNCCOc1nccc(-c2c[nH]c(=O)c(NC(=O)c3ccc(N4CCCCC4)cc3)c2)n1 [II-76]

Ki [nM] | SMILES
100 to 1000 | O=C(Nc1cc(-c2ccncc2)c[nH]c1=O)c1ccc(N2CCNCC2)nc1 [II-100]
100 to 1000 | CC(=O)NCCNc1cccc(-c2c[nH]c(=O)c(NC(=O)c3ccc(N4CCCCC4)cc3)c2)n1 [II-101]
100 to 1000 | O=C(Nc1cc(-c2cccc(NCC3CCNCC3)n2)c[nH]c1=O)c1ccc(N2CCCCC2)cc1 [II-105]
< 100 | CNc1nccc(-c2c[nH]c(=O)c(NC(=O)c3ccc(NCCCN)cc3)c2)n1 [II-107]
100 to 1000 | CCN1CCCC1CNc1cccc(-c2c[nH]c(=O)c(NC(=O)c3ccc(N4CCCCC4)cc3)c2)n1 (stereo not drawn) [II-120]
100 to 1000 | O=C(Nc1cc(-c2cccc(CO)n2)c[nH]c1=O)c1ccc(N2CCCCC2)cc1 [II-121]
100 to 1000 | CNc1cc(-c2c[nH]c(=O)c(NC(=O)c3ccc(N4CCCCC4)cc3)c2)nc(NC)n1 [II-123]
100 to 1000 | CNC(=O)c1cccc(-c2c[nH]c(=O)c(NC(=O)c3ccc(N4CCCCC4)cc3)c2)n1 [II-124]
< 100 | CNc1cc(-c2c[nH]c(=O)c(NC(=O)c3ccc(N4CCNCC4)cc3)c2)ncn1 [II-126]
< 100 | CC(C)[C@@H](CO)Nc1cncc(-c2c[nH]c(=O)c(NC(=O)c3ccc(N4CCNCC4)cc3)c2)n1 [II-131]
100 to 1000 | CC(C)[C@H](CO)Nc1cccc(-c2c[nH]c(=O)c(NC(=O)c3ccc(N4CCCCC4)cc3)c2)n1 [II-132]
100 to 1000 | CC(C)(C)C(CO)Nc1cccc(-c2c[nH]c(=O)c(NC(=O)c3ccc(N4CCCCC4)cc3)c2)n1 (stereo not drawn) [II-133]
< 100 | CNc1cc(-c2c[nH]c(=O)c(NC(=O)c3ccc(N4C[C@@H](C)N[C@@H](C)C4)cc3)c2)ncn1 [II-135]
< 100 | CNc1cc(-c2c[nH]c(=O)c(NC(=O)c3ccc(N4CCC[C@H]4CN4CCCC4)cc3)c2)ncn1 [II-136]
< 100 | CNc1cncc(-c2c[nH]c(=O)c(NC(=O)c3ccc(N4CCNCC4)cc3)c2)n1 [II-139]
100 to 1000 | O=C(Nc1cc(-c2ccccn2)c[nH]c1=O)c1ccc(N2CCCCC2)cc1 [II-140]
< 100 | CNc1cc(-c2c[nH]c(=O)c(NC(=O)c3ccc(OCCC4CCNCC4)cc3)c2)ncn1 [II-142]
< 100 | CNc1cncc(-c2c[nH]c(=O)c(NC(=O)c3ccc(N4CCC[C@H]4CN4CCCC4)cc3)c2)n1 [II-145]
100 to 1000 | CCC(C)[C@@H](CO)Nc1cccc(-c2c[nH]c(=O)c(NC(=O)c3ccc(N4CCCCC4)cc3)c2)n1 (stereo partly drawn) [II-152]

The next lines start with the compound.

SMILES | Ki [nM]
O=C(Nc1cc(-c2ccncc2)c[nH]c1=O)c1ccc(Cl)cc1 [Compound I-27] | 100 to 1000
CN(C)c1ccc(C(=O)Nc2cc(-c3ccncc3)c[nH]c2=O)cc1 [Compound I-45] | 100 to 1000
O=C(Nc1cc(-c2ccncc2)c[nH]c1=O)c1ccc(OCc2ccccc2)cc1 [Compound I-46] | 100 to 1000
O=C(Nc1cc(-c2ccncc2)c[nH]c1=O)c1ccc(O)cc1 [Compound I-47] | 100 to 1000
O=C(Nc1cc(-c2ccncc2)c[nH]c1=O)c1ccc(N2CCC(O)CC2)cc1 [Compound I-72] | 100 to 1000
CNCCNc1nccc(-c2c[nH]c(=O)c(NC(=O)c3ccc(C(C)(C)C)cc3)c2)n1 [II-20] | < 100
CCNc1nccc(-c2c[nH]c(=O)c(NC(=O)c3ccc(C(C)(C)C)cc3)c2)n1 [II-22] | < 100
CC(C)(C)c1ccc(C(=O)Nc2cc(-c3ccncn3)c[nH]c2=O)cc1 [II-34] | 100 to 1000
CC(C)(C)c1ccc(C(=O)Nc2cc(-c3cc(N[C@@H]4CCNC4)ncn3)c[nH]c2=O)cc1 [II-39] | 100 to 1000
O=C(Nc1cc(-c2cc(N[C@@H]3CCNC3)ncn2)c[nH]c1=O)c1ccc(N2CCCCC2)cc1 [II-45] | 100 to 1000
CSc1nccc(-c2c[nH]c(=O)c(NC(=O)c3ccc(N4CCCCC4)cc3)c2)n1 [II-52] | 100 to 1000
O=C(Nc1cc(-c2ccnc(NCCO)n2)c[nH]c1=O)c1ccc(N2CCCCC2)cc1 [II-59] | 100 to 1000
O=C(Nc1cc(-c2cccc(NCCO)n2)c[nH]c1=O)c1ccc(N2CCCCC2)cc1 [II-70] | 100 to 1000
COCCNc1cccc(-c2c[nH]c(=O)c(NC(=O)c3ccc(N4CCCCC4)cc3)c2)n1 [II-71] | 100 to 1000
CNCCN(C)c1cccc(-c2c[nH]c(=O)c(NC(=O)c3ccc(N4CCCCC4)cc3)c2)n1 [II-95] | 100 to 1000
CNc1nccc(-c2c[nH]c(=O)c(NC(=O)c3ccc(OCc4ccccc4)cc3)c2)n1 [II-97] | < 100

SMILES | Ki [nM]
CNc1nccc(-c2c[nH]c(=O)c(NC(=O)c3ccc(Cc4ccccc4)cc3)c2)n1 [II-98] | 100 to 1000
N#Cc1cncc(-c2c[nH]c(=O)c(NC(=O)c3ccc(N4CCCCC4)cc3)c2)c1 [II-99] | 100 to 1000
O=C(Nc1cc(-c2cccc(NCCN3CCCC3)n2)c[nH]c1=O)c1ccc(N2CCCCC2)cc1 [II-104] | 100 to 1000
CC(C)[C@@H](CO)Nc1cccc(-c2c[nH]c(=O)c(NC(=O)c3ccc(N4CCCCC4)cc3)c2)n1 [II-108] | 100 to 1000
C[C@H](CN)Nc1cccc(-c2c[nH]c(=O)c(NC(=O)c3ccc(N4CCCCC4)cc3)c2)n1 [II-129] | < 100
CNc1nc(C)cc(-c2c[nH]c(=O)c(NC(=O)c3ccc(N4CCCCC4)cc3)c2)n1 [II-130] | < 100
CNc1cccc(-c2c[nH]c(=O)c(NC(=O)c3ccc(OCCC4CCNCC4)cc3)c2)n1 [II-134] | < 100
CNc1cc(-c2c[nH]c(=O)c(NC(=O)c3ccc(C4=CCNCC4)cc3)c2)ncn1 [II-137] | 100 to 1000
CNc1cccc(-c2c[nH]c(=O)c(NC(=O)c3ccc(OCCN4CCNCC4)cc3)c2)n1 [II-138] | < 100
Cn1cncc1-c1c[nH]c(=O)c(NC(=O)c2ccc(N3CCNCC3)cc2)c1 [II-144] | 100 to 1000
CNc1cncc(-c2c[nH]c(=O)c(NC(=O)c3ccc(N4CCCNCC4)cc3)c2)n1 [II-146] | < 100
CNc1cncc(-c2c[nH]c(=O)c(NC(=O)c3ccc(N4CCC[C@H]4CO)cc3)c2)n1 [II-147] | < 100
O=C(Nc1cc(-c2cccc(NC3(CO)CCCC3)n2)c[nH]c1=O)c1ccc(N2CCCCC2)cc1 [II-150] | 100 to 1000
CC[C@@H](CO)Nc1cccc(-c2c[nH]c(=O)c(NC(=O)c3ccc(N4CCCCC4)cc3)c2)n1 [II-151] | 100 to 1000
CNc1cncc(-c2c[nH]c(=O)c(NC(=O)c3ccc(OCC4CCNCC4)cc3)c2)n1 [II-153] | < 100
